According to the supplement of paper PMC10307832:

How the values were obtained:
Experiment in all cases: relative viability (nuclei count vs DMSO), 5 days (fraction); higher = more cells survive
Irinotecan + Bortezomib = compound: CCc1c2c(nc3ccc(OC(=O)N4CCC(N5CCCCC5)CC4)cc13)-c1cc3c(c(=O)n1C2)COC(=O)[C@]3(O)CC [Irinotecan] + CC(C)C[C@H](NC(=O)[C@H](Cc1ccccc1)NC(=O)c1cnccn1)B(O)O [Bortezomib] (partner 0.002 µM)
Outline: (§1)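 Values are medians from duplicate plates. Each reflects relative viability, defined as the nuclei count of treated wells over that of vehicle wells. Lung cancer cell lines in 1536-well plates were pin-tool dosed one day after seeding with one drug alone or with a fixed anchor-drug dose plus five library-drug doses (not always all listed) in √10 steps, then fixed, stained and imaged at 4× after 5 days.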

Irinotecan + Linsitinib = compound: CCc1c2c(nc3ccc(OC(=O)N4CCC(N5CCCCC5)CC4)cc13)-c1cc3c(c(=O)n1C2)COC(=O)[C@]3(O)CC [Irinotecan] + C[C@]1(O)C[C@@H](c2nc(-c3ccc4ccc(-c5ccccc5)nc4c3)c3c(N)nccn32)C1 [Linsitinib] (partner 1 µM)
Outline: as §1

Irinotecan + Olaparib = compound: CCc1c2c(nc3ccc(OC(=O)N4CCC(N5CCCCC5)CC4)cc13)-c1cc3c(c(=O)n1C2)COC(=O)[C@]3(O)CC [Irinotecan] + O=C(c1cc(Cc2n[nH]c(=O)c3ccccc23)ccc1F)N1CCN(C(=O)C2CC2)CC1 [Olaparib] (partner 8 µM)
Outline: as §1

MK-8033 + Crizotinib = compound: Cn1cc(-c2cnc3ccc4ccc(CS(=O)(=O)NCc5ccccn5)cc4c(=O)c3c2)cn1 [MK-8033] + C[C@@H](Oc1cc(-c2cnn(C3CCNCC3)c2)cnc1N)c1c(Cl)ccc(F)c1Cl [Crizotinib] (partner 1 µM)
Outline: as §1

## UMC-11
Irinotecan + Bortezomib; first compound 0.6325 µM
  relative viability: 0.595
Irinotecan + Bortezomib; first compound 2 µM
  relative viability: 0.519
Irinotecan + Bortezomib; first compound 6.325 µM
  relative viability: 0.184
Irinotecan + Bortezomib; first compound 20 µM
  relative viability: 0.139
Irinotecan + Linsitinib; first compound 0.6325 µM
  relative viability: 0.724
Irinotecan + Linsitinib; first compound 2 µM
  relative viability: 0.49
Irinotecan + Linsitinib; first compound 6.325 µM
  relative viability: 0.281
Irinotecan + Linsitinib; first compound 20 µM
  relative viability: 0.22
Irinotecan + Olaparib; first compound 0.6325 µM
  relative viability: 0.273
Irinotecan + Olaparib; first compound 2 µM
  relative viability: 0.206
Irinotecan + Olaparib; first compound 6.325 µM
  relative viability: 0.283
Irinotecan + Olaparib; first compound 20 µM
  relative viability: 0.226
MK-8033 + Crizotinib; first compound 0.02 µM
  relative viability: 0.737
MK-8033 + Crizotinib; first compound 0.06325 µM
  relative viability: 0.459
MK-8033 + Crizotinib; first compound 0.2 µM
  relative viability: 0.734
MK-8033 + Crizotinib; first compound 0.6325 µM
  relative viability: 0.678
MK-8033 + Crizotinib; first compound 2 µM
  relative viability: 0.697
